The values below come from ChEMBL document CHEMBL1275596, “Prevalence of fosfomycin resistance among CTX-M-producing Escherichia coli clinical isolates in Japan and identification of novel plasmid-mediated fosfomycin-modifying enzymes” (2010).

Converted amounts (≈) assume the structure as drawn.

What all share (type): functional
Experiment [1] relates to Escherichia coli. The experiment can be described thus: Antimicrobial activity against beta-lactamase CTX-M-producing Escherichia coli isolate 08-555 harboring glpT gene with 981[227-bp deletion]1209.
The test system of experiment [2] is Escherichia coli. In words: Antimicrobial activity against beta-lactamase CTX-M-producing Escherichia coli isolate 08-642.
Experiment [3] has as its system Escherichia coli. The experiment can be described thus: Antimicrobial activity against beta-lactamase CTX-M-producing Escherichia coli isolate 06-607.
Experiment [4] has as its system Escherichia coli. The experiment can be described thus: Antimicrobial activity against beta-lactamase CTX-M-producing Escherichia coli isolate 05-244 harboring glpT gene with 328[14-bp duplication]343, uhpT gene with 1173[96-bp deletion]1270.
The subject of experiment [5] is Escherichia coli. The experiment can be described thus: Antimicrobial activity against beta-lactamase CTX-M-producing Escherichia coli isolate 05-690 harboring uhpA stop at amino acid at 144.
For experiment [6], the system named is Escherichia coli. The experiment can be described thus: Antimicrobial activity against beta-lactamase CTX-M-producing Escherichia coli isolate 03-271.
Experiment [7] has as its system Escherichia coli. In words: Antimicrobial activity against beta-lactamase CTX-M-producing Escherichia coli isolate 03-285.
For experiment [8], the system named is Escherichia coli. The experiment can be described thus: Antimicrobial activity against beta-lactamase CTX-M-producing Escherichia coli isolate 03-286 harboring glpT gene with 405[5-bp duplication]411.
Experiment [9] relates to Escherichia coli. The experiment can be described thus: Antimicrobial activity against beta-lactamase CTX-M-producing Escherichia coli isolate 03-287 harboring glpT gene with 405[5-bp duplication]411.
The test system of experiment [10] is Escherichia coli. In words: Antimicrobial activity against beta-lactamase CTX-M-producing Escherichia coli isolate C316.
In experiment [11] the test system is Escherichia coli. The experiment can be described thus: Antimicrobial activity against Escherichia coli CSH-2 conjugant of strain 08-642.
Experiment [12] concerns Escherichia coli. The experiment can be described thus: Antimicrobial activity against Escherichia coli CSH-2 conjugant of strain 08-607.
In experiment [13] the test system is Escherichia coli. The experiment can be described thus: Antimicrobial activity against Escherichia coli CSH-2 conjugant of strain C316.
In experiment [14] the test system is Escherichia coli. The experiment can be described thus: Antimicrobial activity against rifampin-, nalidixic acid resistant Escherichia coli CSH-2.
Experiment [15] relates to Escherichia coli. In words: Antimicrobial activity against Escherichia coli DH10B transformant containing Kpn1 fragment with fosA3 gene from 08-642.
The subject of experiment [16] is Escherichia coli. In words: Antimicrobial activity against Escherichia coli DH10B transformant containing Sac2 fragment with fosA3 gene from 08-607.
Experiment [17] concerns Escherichia coli. In words: Antimicrobial activity against Escherichia coli DH10B transformant containing Sac2 fragment with fosC2 gene from pHPA.
Experiment [18] relates to Escherichia coli. In words: Antimicrobial activity against streptomycin-, chloramphenicol-resistant pBCKS positive Escherichia coli DH10B transformant.
Experiment [19] concerns Escherichia coli. The experiment can be described thus: Antimicrobial activity against beta-lactamase CTX-M-producing Escherichia coli isolate 08-555 harboring glpT gene with 981[227-bp deletion]1209 by agar dilution method.
In experiment [20] the test system is Escherichia coli. In words: Antimicrobial activity against beta-lactamase CTX-M-producing Escherichia coli isolate 08-642 by agar dilution method.
For experiment [21], the system named is Escherichia coli. The experiment can be described thus: Antimicrobial activity against beta-lactamase CTX-M-producing Escherichia coli isolate 06-607 by agar dilution method.
The subject of experiment [22] is Escherichia coli. The experiment can be described thus: Antimicrobial activity against beta-lactamase CTX-M-producing Escherichia coli isolate 05-244 harboring glpT gene with 328[14-bp duplication]343, uhpT gene with 1173[96-bp deletion]1270 by agar dilution method.
Experiment [23] has as its system Escherichia coli. The experiment can be described thus: Antimicrobial activity against beta-lactamase CTX-M-producing Escherichia coli isolate 05-690 harboring uhpA stop codon at amino acid at 144 by agar dilution method.
In experiment [24] the test system is Escherichia coli. The experiment can be described thus: Antimicrobial activity against beta-lactamase CTX-M-producing Escherichia coli isolate 03-271 by agar dilution method.
Experiment [25] relates to Escherichia coli. In words: Antimicrobial activity against beta-lactamase CTX-M-producing Escherichia coli isolate 03-285 by agar dilution method.
In experiment [26] the test system is Escherichia coli. In words: Antimicrobial activity against beta-lactamase CTX-M-producing Escherichia coli isolate 03-286 harboring glpT gene with 405[5-bp duplication]411 by agar dilution method.
In experiment [27] the test system is Escherichia coli. In words: Antimicrobial activity against beta-lactamase CTX-M-producing Escherichia coli isolate 03-287 harboring glpT gene with 405[5-bp duplication]411 by agar dilution method.
Experiment [28] concerns Escherichia coli. The experiment can be described thus: Antimicrobial activity against beta-lactamase CTX-M-producing Escherichia coli isolate C316 by agar dilution method.
Experiment [29] has as its system Escherichia coli. In words: Antimicrobial activity against Escherichia coli CSH-2 conjugant of strain 08-642 by agar dilution method.
Experiment [30] concerns Escherichia coli. The experiment can be described thus: Antimicrobial activity against Escherichia coli CSH-2 conjugant of strain 08-607 by agar dilution method.
For experiment [31], the system named is Escherichia coli. The experiment can be described thus: Antimicrobial activity against Escherichia coli CSH-2 conjugant of strain C316 by agar dilution method.
The test system of experiment [32] is Escherichia coli. In words: Antimicrobial activity against rifampin-, nalidixic acid resistant Escherichia coli CSH-2 by agar dilution method.
The test system of experiment [33] is Escherichia coli. In words: Antimicrobial activity against Escherichia coli DH10B transformant containing Kpn1 fragment with fosA3 gene from 08-642 by agar dilution method.
The test system of experiment [34] is Escherichia coli. In words: Antimicrobial activity against Escherichia coli DH10B transformant containing Sac2 fragment with fosA3 gene from 08-607 by agar dilution method.
For experiment [35], the system named is Escherichia coli. The experiment can be described thus: Antimicrobial activity against Escherichia coli DH10B transformant containing Sac2 fragment with fosC2 gene from pHPA by agar dilution method.
The subject of experiment [36] is Escherichia coli. In words: Antimicrobial activity against streptomycin-, chloramphenicol-resistant pBCKS positive Escherichia coli DH10B transformant by agar dilution method.

Regarding `CO/N=C(\C(=O)N[C@@H]1C(=O)N2C(C(=O)O)=C(COC(C)=O)CS[C@H]12)c1csc(N)n1` [CEFOTAXIME], the minimum inhibitory concentration (MIC) in the experiment with Escherichia coli [1] was more than 128 µg/mL; against Escherichia coli [2] it was 64 µg/mL (≈ 141 µM); against Escherichia coli [3], 16 µg/mL (≈ 35.1 µM); against Escherichia coli [4] it was more than 128 µg/mL; against Escherichia coli [5] it was 64 µg/mL (≈ 141 µM); against Escherichia coli [6] it was 32 µg/mL (≈ 70.3 µM). Besides, the MIC against Escherichia coli [7] is more than 128 µg/mL; in the experiment with Escherichia coli [8], more than 128 µg/mL; against Escherichia coli [9], 128 µg/mL (≈ 281 µM); in the experiment on Escherichia coli [10], 128 µg/mL (≈ 281 µM); against Escherichia coli [11], 128 µg/mL (≈ 281 µM); in the experiment with Escherichia coli [12], 32 µg/mL (≈ 70.3 µM). Moreover, the MIC with Escherichia coli [13] is 64 µg/mL (≈ 141 µM); against Escherichia coli [14], not above 0.06 µg/mL; in the experiment on Escherichia coli [15], not above 0.06 µg/mL; with Escherichia coli [16] it was not above 0.06 µg/mL; in the experiment with Escherichia coli [17], not above 0.06 µg/mL; against Escherichia coli [18], not above 0.06 µg/mL.
Regarding `C[C@@H]1O[C@@H]1P(=O)(O)O` [FOSFOMYCIN], the MIC in the experiment on Escherichia coli [19] was more than 256 µg/mL; against Escherichia coli [20] it was more than 256 µg/mL; against Escherichia coli [21], more than 256 µg/mL; with Escherichia coli [22] it was 128 µg/mL (≈ 927 µM); against Escherichia coli [23], 64 µg/mL (≈ 464 µM); with Escherichia coli [24], 64 µg/mL (≈ 464 µM). Moreover, the MIC is 128 µg/mL (≈ 927 µM) against Escherichia coli [25]; 64 µg/mL (≈ 464 µM) in the experiment with Escherichia coli [26]; more than 256 µg/mL with Escherichia coli [27]; 256 µg/mL (≈ 1850 µM) against Escherichia coli [28]; more than 256 µg/mL with Escherichia coli [29]; more than 256 µg/mL with Escherichia coli [30]. The MIC in the experiment with Escherichia coli [31] was more than 256 µg/mL; against Escherichia coli [32], 1 µg/mL (≈ 7.24 µM); against Escherichia coli [33] it was more than 256 µg/mL; with Escherichia coli [34] it was more than 256 µg/mL; in the experiment with Escherichia coli [35] it was more than 256 µg/mL; in the experiment with Escherichia coli [36], 0.5 µg/mL (≈ 3.62 µM).
